Results on 17 molecules are retold here after ChEMBL document CHEMBL1153875, “Synthesis of new dipyrrolo- and furopyrrolopyrazinones related to tripentones and their biological evaluation as potential kinases (CDKs1-5, GSK-3) inhibitors” (Eur J Med Chem, 2009).

The target in assay [1] is Cyclin-dependent kinase 1/cyclin B1 (Homo sapiens, UniProt P06493). Nature of the assay: Inhibition of CDK1/cyclin B. The class given is protein-complex assay.
Assay [2] has as its target Cyclin-dependent kinase 5 (Homo sapiens, UniProt Q00535). Put plainly: Inhibition of CDK5.
The target of assay [3] is Glycogen synthase kinase-3 beta (Homo sapiens, UniProt P49841). Put plainly: Inhibition of GSK3-beta.
Assay [4] is described as follows: Inhibition of tubulin polymerization.

Each structure is given as a SMILES string.

Sequence of Cyclin-dependent kinase 1/cyclin B1 (P06493 whole entry): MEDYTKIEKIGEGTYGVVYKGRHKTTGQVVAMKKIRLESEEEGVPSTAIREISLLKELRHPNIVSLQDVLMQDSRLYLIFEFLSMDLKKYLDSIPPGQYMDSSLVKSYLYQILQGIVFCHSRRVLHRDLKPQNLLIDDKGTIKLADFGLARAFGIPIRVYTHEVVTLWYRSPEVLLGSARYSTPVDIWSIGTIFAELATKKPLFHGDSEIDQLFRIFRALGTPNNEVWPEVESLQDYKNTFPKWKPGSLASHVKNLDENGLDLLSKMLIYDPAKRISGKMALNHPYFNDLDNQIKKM
Sequence of Cyclin-dependent kinase 1/cyclin B1 (P14635 whole entry, further chain): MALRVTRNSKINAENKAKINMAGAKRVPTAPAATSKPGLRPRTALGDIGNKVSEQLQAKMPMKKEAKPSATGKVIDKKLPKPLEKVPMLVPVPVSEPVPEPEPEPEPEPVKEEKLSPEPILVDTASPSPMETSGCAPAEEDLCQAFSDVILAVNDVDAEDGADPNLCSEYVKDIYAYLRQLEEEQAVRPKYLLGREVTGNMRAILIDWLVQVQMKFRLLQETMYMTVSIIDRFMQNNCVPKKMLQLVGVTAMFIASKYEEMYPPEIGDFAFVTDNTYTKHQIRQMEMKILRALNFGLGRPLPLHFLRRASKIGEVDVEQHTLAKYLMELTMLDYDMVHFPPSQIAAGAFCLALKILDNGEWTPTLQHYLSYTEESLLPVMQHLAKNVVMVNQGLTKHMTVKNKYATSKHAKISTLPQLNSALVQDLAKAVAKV
Sequence of Glycogen synthase kinase-3 beta (P49841 whole entry): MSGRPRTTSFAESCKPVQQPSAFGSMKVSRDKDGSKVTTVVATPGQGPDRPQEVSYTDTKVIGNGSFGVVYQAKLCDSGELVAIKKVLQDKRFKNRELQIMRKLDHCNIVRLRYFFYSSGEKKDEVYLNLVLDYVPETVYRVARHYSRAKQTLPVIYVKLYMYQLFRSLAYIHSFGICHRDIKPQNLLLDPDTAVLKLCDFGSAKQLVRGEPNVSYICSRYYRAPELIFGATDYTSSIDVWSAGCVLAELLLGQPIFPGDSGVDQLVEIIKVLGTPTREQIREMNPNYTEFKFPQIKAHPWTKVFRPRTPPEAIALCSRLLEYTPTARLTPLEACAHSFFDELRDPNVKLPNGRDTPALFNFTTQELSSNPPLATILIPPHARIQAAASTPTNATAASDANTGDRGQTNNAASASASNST
Sequence of Cyclin-dependent kinase 5 (Q00535 whole entry): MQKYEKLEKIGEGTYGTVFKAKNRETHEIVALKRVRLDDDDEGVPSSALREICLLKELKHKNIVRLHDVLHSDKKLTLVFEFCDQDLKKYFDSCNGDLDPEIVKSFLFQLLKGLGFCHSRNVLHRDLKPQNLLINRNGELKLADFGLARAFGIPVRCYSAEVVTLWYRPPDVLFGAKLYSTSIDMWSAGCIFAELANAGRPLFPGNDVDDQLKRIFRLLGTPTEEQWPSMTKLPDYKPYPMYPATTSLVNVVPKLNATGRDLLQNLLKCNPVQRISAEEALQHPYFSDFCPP

The term IC50 denotes the concentration that inhibits the measured activity by half. Low readings indicate greater potency, high ones weaker potency. For `COc1ccc(-c2coc3c2-n2cccc2C3=O)cc1OC`, the IC50 in assay [1], in assay [2] and in assay [3] was greater than 50 µM throughout.
Regarding `COc1ccc(-c2csc3c2-n2cccc2C3=O)cc1O`, the IC50 in assay [4] worked out at 2.9 µM; in assay [1] it was 5.5 µM.
`COc1ccc(-c2csc3c2-n2cccc2C3=O)cc1OCc1ccccc1`: the IC50 in assay [1] and in assay [3] was greater than 50 µM each time.
With `COc1ccc(-c2c[nH]c3c2-n2cccc2C3=O)cc1OC`, the half-inhibitory concentration (IC50) in assay [2] and in assay [3] was greater than 50 µM throughout.
As to `COc1ccc(-c2c[nH]c3c2-n2cccc2/C3=N/O)cc1O`, the IC50 was determined as 3.8 µM in assay [1], 3.2 µM in assay [2] and 5.5 µM in assay [3].
For the molecule `COc1ccc(-c2c[nH]c3[nH]c(=O)c4cccn4c23)cc1OC`, the half-maximal inhibitory concentration (IC50) in assay [2] and in assay [3] was greater than 50 µM throughout.
In the case of `O=C1c2[nH]cc(-c3ccc(Cl)cc3)c2-n2cccc21`, the concentration for half-maximal inhibition (IC50) in assay [1], in assay [2] and in assay [3] was greater than 50 µM in each case.
Turning to `COc1ccc(-c2c[nH]c3c2-n2cccc2/C3=N/O)cc1OCc1ccccc1`, the IC50 in assay [1] came to 9 µM; in assay [2] it was 14 µM; in assay [3] it was 17 µM.
For `O=c1[nH]c2occ(-c3ccc(Br)cc3)c2n2cccc12`, the IC50 in assay [2] and in assay [3] was greater than 50 µM each time.
Consider `COc1ccc(-c2coc3[nH]c(=O)c4cccn4c23)cc1`, for which the IC50 in assay [2] and in assay [3] was greater than 50 µM throughout.
In the case of `O=c1[nH]c2occ(-c3ccc(Cl)c(Cl)c3)c2n2cccc12`, the half-maximal inhibitory concentration (IC50) in assay [2] and in assay [3] was greater than 50 µM throughout.
As for `COc1ccc(-c2coc3[nH]c(=O)c4cccn4c23)cc1OC`, the half-inhibitory concentration (IC50) in assay [2] and in assay [3] was greater than 50 µM each time.
For the molecule `COc1ccc(-c2c[nH]c3c2-n2cccc2C3=O)cc1OCc1ccccc1`, the concentration for half-maximal inhibition (IC50) in assay [1], in assay [2] and in assay [3] was greater than 50 µM each time.
For the molecule `O=c1[nH]c2[nH]cc(-c3ccc(Cl)cc3)c2n2cccc12`, the IC50 in assay [2] and in assay [3] was greater than 50 µM throughout.
As for `Cc1ccc(-c2coc3[nH]c(=O)c4cccn4c23)cc1`, the IC50 in assay [2] and in assay [3] was greater than 50 µM throughout.
Consider `O=c1[nH]c2occ(-c3ccc(F)cc3)c2n2cccc12`, for which the half-maximal inhibitory concentration (IC50) in assay [2] and in assay [3] was greater than 50 µM in each case.
For `COc1ccc(-c2c[nH]c3c2-n2cccc2C3=O)cc1O`, the half-maximal inhibitory concentration (IC50) in assay [1] was determined as 22 µM; in assay [2], 30 µM; in assay [3], 11 µM.
